Test results published in patent US10208056B2, “Condensed tricyclic compounds as protein kinase inhibitors” (FUNDACIÓN DEL SECTOR PÚBLICO ESTATAL CENTRO NACIONAL DE …, priority 2015, dated 2019).
Like-named read-outs stand apart in the source and are kept apart here.

Key:
MV4:11 = test: In vitro cell proliferation assay (CellTiter-Glo), MV4:11; assay type: cell-based
Protocol: (§1) The in vitro potency of the compounds was measured by the cell proliferation assay CellTiter-Glo® Luminescent Cell Viability Assay, commercially available from Promega Corp., Madison, Wis. This homogeneous assay method is based on the recombinant expression of Coleoptera luciferase (U.S. Pat. No. 5,583,024; U.S. Pat. No. 5,674,713; U.S. Pat. No. 5,700,670) and determines the number of viable cells in culture based on quantitation of the ATP present, an indicator of metabolically active cells (Crouch et al (1993) J. Immunol. Meth. 160:81-88; U.S. Pat. No. 6,602,677). The CellTiterGlo® Assay was conducted […] it amenable to automated high throughput screening (HTS) (Cree et al (1995) AntiCancer Drugs 6:398-404).
(§2) The homogeneous assay procedure involves adding the single reagent (CellTiter-Glo® Reagent) directly to cells cultured in serum-supplemented medium. Cell washing, removal of medium and multiple pipetting steps are not required. The system detects as few as 15 cells/well in a 96-well format in 10 minutes after adding reagent and mixing.
(§3) The homogeneous “add-mix-measure” format results in cell lysis and generation of a luminescent signal proportional to the amount of ATP present. The amount of ATP is directly proportional to the number of cells present in culture. The CellTiter-Glo® Assay generates a “glow-type” luminescent signal, produced by the luciferase reaction, which has a half-life generally greater than five hours, depending on cell type and medium used. Viable cells are reflected in relative luminescence units (RLU). The substrate, Beetle Luciferin, is oxidatively decarboxylated by recombinant firefly luciferase with concomitant conversion of ATP to AMP and generation of photons. The extended half-life eliminates the need to use reagent injectors and provides flexibility for continuous or batch mode processing of multiple plates. This cell proliferation assay can be used with various multiwell formats, e.g. 96 or 384 well format. Data can be recorded by luminometer or CCD camera imaging device. The luminescence output is presented as relative light units (RLU), measured over time.

Molm13 = test: In vitro cell proliferation assay (CellTiter-Glo), Molm13; assay type: cell-based
Protocol: as §1, §2, §3

SW620 = test: In vitro cell proliferation assay (CellTiter-Glo), SW620; assay type: cell-based, human
Protocol: as §1, §2, §3

Haspin kinase = Haspin kinase (Homo sapiens (Human), UniProt Q8TF76); test: Haspin kinase assay (ADP-Glo); assay type: biochemical; conditions: ATP 150 μM
Source text: The kinase assay relies on ADP-Glo^KM biochemical kinase assay (Promega). This is a luminescent kinase assay that measures ADP formed from a kinase reaction. Then ADP is converted into ATP, which is transformed into a light signal by Ultra-Glo™ Luciferase. The luminescent signal positively correlates with kinase activity. The assay measures the intrinsic ATPase activity (in the absence of peptidic substrate as phosphate acceptor).
The enzyme was purchase from Invitrogen (PV5708) as the kinase domain of GST tagged recombinant human proteins.
Assay conditions were as indicated by the kit manufacturers with the following adaptations: • Assay buffer: 15 mM HEPES pH 7.4, 20 mM NaCl, 1 mM EGTA, 0.02% Tween 20, 10 mM MgCl2, 0.1 mg/ml BGG • Assay volume: 20 μl • Incubation time and temperature: 60 min at 30° C. • Haspin concentration: 20 nM • ATP concentration: 150 μM • Tested compound: Serial 1:3 dilutions • Final DMSO concentration in the assay: 1%
Assays were performed in 384-well plates. The final read out was generated using an EnVision plate reader (Perkin-Elmer). Luminescent relative units are normalized against the control activity included for each compound (i.e., 100% Haspin activity, without compound) and the percentage of inhibition is calculated.

CDK19/Cyclin C = CDK19/Cyclin C (Homo sapiens (Human), UniProt Q9BWU1); test: CDK19/Cyclin C binding assay (LanthaScreen Eu-Kinase Binding Assay); conditions: read-out: CDK19-CYCC IC50
Protocol: The binding assay relies on the LanthaScreen™ Eu-Kinase Binding Assay (Invitrogen).
Assay conditions were as indicated by the kit manufacturers with the following adaptations: • Assay buffer: 50 mM HEPES, pH 7.5, 1 mM EGTA, 0.01% Brij-35, 10 mM MgCl2 • Assay volume: 20 μl • Incubation time and temperature: 60 min at 25° C. • Cdk19-Cyclin C concentration: 2 nM • Tracer concentration: 20 nM • (Eu)-labelled anti-GST antibody concentration: 2 nM • Tested compound: Serial 1:3 dilutions • Final DMSO concentration in the assay: 1%
(§4) Assays were performed in 384-well plates. The final read out was generated using an EnVision plate reader (Perkin-Elmer).

MDA-MB-231 = test: In vitro cell proliferation assay (CellTiter-Glo), MDA-MB-231; assay type: cell-based
Protocol: as §1, §2, §3

CDK8/Cyclin C = CDK8/Cyclin C (Homo sapiens (Human), UniProt P49336); test: CDK8/Cyclin C binding assay (LanthaScreen Eu-Kinase Binding Assay); conditions: for IC50: binding assay
Protocol: The enzyme has been purchase from Invitrogen (PV4402) as a dimer of full-length His-tagged recombinant human proteins.
as §4

[1] = Homo sapiens, MV4-11, growth inhibition, semiquantitative, read-out: GI50 MV4:11
[2] = Homo sapiens, MDA-MB-231, growth inhibition, semiquantitative, read-out: GI50 MDA-MB-231
[3] = Homo sapiens, MOLM-13, growth inhibition, semiquantitative, read-out: GI50 Molm13
[4] = Homo sapiens, SW-620, growth inhibition, semiquantitative, read-out: GI50 SW620

Sequence of CDK8/Cyclin C (P49336 whole entry): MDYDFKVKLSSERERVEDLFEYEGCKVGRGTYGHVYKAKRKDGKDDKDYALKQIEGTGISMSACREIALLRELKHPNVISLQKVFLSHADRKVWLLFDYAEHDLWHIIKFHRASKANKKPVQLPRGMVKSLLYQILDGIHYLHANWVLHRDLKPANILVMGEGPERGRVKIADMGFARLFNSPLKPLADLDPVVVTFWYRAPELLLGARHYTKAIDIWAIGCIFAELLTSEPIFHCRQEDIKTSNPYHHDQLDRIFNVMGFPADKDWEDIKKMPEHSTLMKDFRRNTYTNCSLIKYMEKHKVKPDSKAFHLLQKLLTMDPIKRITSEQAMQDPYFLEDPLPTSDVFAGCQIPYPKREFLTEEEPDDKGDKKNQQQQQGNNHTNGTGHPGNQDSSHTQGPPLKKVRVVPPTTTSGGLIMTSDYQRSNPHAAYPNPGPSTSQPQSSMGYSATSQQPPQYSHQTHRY
Sequence of CDK8/Cyclin C (P24863 whole entry partner): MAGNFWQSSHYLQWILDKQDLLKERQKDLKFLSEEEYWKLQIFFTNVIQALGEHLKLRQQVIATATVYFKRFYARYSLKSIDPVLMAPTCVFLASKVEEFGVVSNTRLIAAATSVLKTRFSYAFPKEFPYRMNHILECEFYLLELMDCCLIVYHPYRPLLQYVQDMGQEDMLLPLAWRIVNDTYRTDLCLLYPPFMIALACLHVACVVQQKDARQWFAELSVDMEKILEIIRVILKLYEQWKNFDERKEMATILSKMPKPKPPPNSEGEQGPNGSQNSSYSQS
Sequence of Haspin kinase (Q8TF76 484-798): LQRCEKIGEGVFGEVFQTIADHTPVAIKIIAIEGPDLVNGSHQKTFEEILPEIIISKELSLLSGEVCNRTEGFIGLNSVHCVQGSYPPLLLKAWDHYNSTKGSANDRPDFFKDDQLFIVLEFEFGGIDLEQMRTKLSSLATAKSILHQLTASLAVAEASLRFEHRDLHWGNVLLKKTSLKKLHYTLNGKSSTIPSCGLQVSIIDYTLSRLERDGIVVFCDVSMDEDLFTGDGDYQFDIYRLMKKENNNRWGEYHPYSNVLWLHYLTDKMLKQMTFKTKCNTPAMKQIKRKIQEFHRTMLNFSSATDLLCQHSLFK
Sequence of CDK19/Cyclin C (Q9BWU1 whole entry): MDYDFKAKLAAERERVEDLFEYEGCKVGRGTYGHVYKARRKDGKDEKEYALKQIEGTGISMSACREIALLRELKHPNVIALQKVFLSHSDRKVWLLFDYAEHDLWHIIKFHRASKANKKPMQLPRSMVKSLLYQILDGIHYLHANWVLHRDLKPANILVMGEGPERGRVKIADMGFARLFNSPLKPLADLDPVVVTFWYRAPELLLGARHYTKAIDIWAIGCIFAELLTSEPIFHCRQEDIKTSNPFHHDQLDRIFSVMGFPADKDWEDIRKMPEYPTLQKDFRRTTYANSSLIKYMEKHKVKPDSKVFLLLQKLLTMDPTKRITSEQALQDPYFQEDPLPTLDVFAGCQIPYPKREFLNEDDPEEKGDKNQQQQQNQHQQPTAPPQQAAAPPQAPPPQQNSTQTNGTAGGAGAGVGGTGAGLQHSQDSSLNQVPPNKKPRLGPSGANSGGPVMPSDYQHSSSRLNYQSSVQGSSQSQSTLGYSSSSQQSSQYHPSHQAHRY
Sequence of CDK19/Cyclin C (P24863 whole entry partner): as the sequence (P24863 whole entry partner) above

Compound	IC50 (Haspin kinase) [nM]	IC50 (CDK19/Cyclin C) [nM]	IC50 (CDK8/Cyclin C) [nM]	further results
CCn1c(C(N)=O)cc2c1-c1ccncc1O[C@H]2C1CCCCC1 (single isomer, unassigned) [Example 89]	95.2	1.41	0.407	GI50 (MV4:11; growth inhibition, semiquantitative, read-out: GI50 MV4:11): < 1000 nM; GI50 (Molm13; growth inhibition, semiquantitative, read-out: GI50 Molm13): < 1000 nM; GI50 (SW620; growth inhibition, semiquantitative, read-out: GI50 SW620): 10000 to 100000 nM; GI50 (MDA-MB-231; growth inhibition, semiquantitative, read-out: GI50 MDA-MB-231): 10000 to 100000 nM
CC1(C)Oc2cnccc2-c2[nH]c(C(N)=O)cc21 [Example 1]	38.1	11.9	2.59	GI50 (MV4:11; [1]): 1000 to 10000 nM; GI50 (MDA-MB-231; [2]): 10000 to 100000 nM
NC(=O)c1cc2c([nH]1)-c1ccncc1OC21CCN(CC(F)(F)F)CC1 [Example 18]	344	40.5	20.2	GI50 (MV4:11; [1]): 1000 to 10000 nM; GI50 (Molm13; [3]): 1000 to 10000 nM; GI50 (SW620; [4]): 10000 to 100000 nM; GI50 (MDA-MB-231; [2]): 10000 to 100000 nM
Cn1c(C(N)=O)cc2c1-c1ccncc1OC2(C)C [Example 22]	87.4	1.41	1.98	GI50 (MV4:11; Homo sapiens, MV4-11, read-out: GI50 MV4:11): < 1000 nM; GI50 (Molm13; Homo sapiens, MOLM-13, read-out: GI50 Molm13): 1000 to 10000 nM; GI50 (SW620; Homo sapiens, SW-620, read-out: GI50 SW620): 10000 to 100000 nM; GI50 (MDA-MB-231; Homo sapiens, MDA-MB-231, read-out: GI50 MDA-MB-231): 1000 to 10000 nM
CC1(C)Oc2cnccc2-c2[nH]c(C(=O)O)c(-c3ccc(S(N)(=O)=O)cc3)c21 [Example 30]	2740	20.7	8.94	CDK8 selectivity (CDK8/Cyclin C): high CDK8 selectivity
CC1(C)Oc2cnccc2-c2[nH]c(C(N)=O)c(-c3ccccc3)c21 [Example 31]	73.2	107	29.7	–
CC1(C)Oc2cnccc2-c2[nH]c(C(N)=O)c(-c3ccc(S(N)(=O)=O)cc3)c21 [Example 32]	235	81.3	26.2	–
C=Cc1c(C(N)=O)[nH]c2c1C(C)(C)Oc1cnccc1-2 [Example 33]	90.6	29.5	12.3	–
CC1(C)Oc2cncc(Cl)c2-c2[nH]c(C(N)=O)cc21 [Example 34]	31.8	1.41	2.1	GI50 (MV4:11; [1]): < 1000 nM
CC1(C)Oc2cncc(Cl)c2-c2[nH]c(C(=O)O)cc21 [Example 35]	151	31.4	13.3	–
Cn1c(C(N)=O)cc2c1-c1c(Cl)cncc1OC2(C)C [Example 41]	1310	158	55.5	–
NC(=O)c1cc2c([nH]1)-c1ccncc1OC21CCN(CCc2ccccc2)CC1 [Example 46]	81.3	585	445	GI50 (MV4:11; [1]): < 1000 nM; GI50 (Molm13; [3]): < 1000 nM; GI50 (SW620; [4]): 1000 to 10000 nM; GI50 (MDA-MB-231; [2]): 1000 to 10000 nM
COc1ccc(-c2c(C(N)=O)[nH]c3c2C(C)(C)Oc2cnccc2-3)cc1 [Example 51]	321	171	31.9	–
CC1(C)Oc2cnccc2-c2c1cc(C(N)=O)n2CC(F)(F)F [Example 53]	186	19.4	21.6	–
CC(C)C1(C)Oc2cnccc2-c2[nH]c(C(N)=O)cc21 (stereo not shown) [Example 54]	52.9	97.1	31.1	–
CC1(C)Oc2cnccc2-c2[nH]c(C(N)=O)c(C3=CCOCC3)c21 [Example 55]	146	70.5	39.3	–
CC1(C)Oc2cnccc2-c2[nH]c(C(=O)O)c(C3=CCOCC3)c21 [Example 56]	683	86.6	78.5	–
NC(=O)c1cc2c([nH]1)-c1ccncc1OC2C1CCCCC1 (stereo not shown) [Example 57]	–	47.3	1.41	GI50 (SW620; [4]): < 1000 nM
CC1Oc2cnccc2-c2[nH]c(C(N)=O)cc21 (stereo not shown) [Example 58]	247	25.5	14.4	–
COc1ccccc1-c1c(C(N)=O)[nH]c2c1C(C)(C)Oc1cnccc1-2 [Example 63]	3960	229	55.4	–
CC1(C)Oc2cnccc2-c2[nH]c(C(N)=O)c(-c3ccc4[nH]ncc4c3)c21 [Example 65]	933	10000	10000	–
Cn1c(C(N)=O)cc2c1-c1ccncc1OC21CCC1 [Example 67]	27.6	1.41	0.466	–
CCn1c(C(N)=O)c(-c2ccccc2C(F)(F)F)c2c1-c1ccncc1OC2(C)C [Example 75]	233	16.7	14.4	–
Cn1c(C(N)=O)cc2c1-c1ccncc1OC21CCOCC1 [Example 81]	138	6.1	3.83	GI50 (MV4:11; [1]): < 1000 nM; GI50 (Molm13; [3]): < 1000 nM; GI50 (SW620; [4]): 1000 to 10000 nM; GI50 (MDA-MB-231; [2]): 1000 to 10000 nM
COCCn1c(C(N)=O)cc2c1-c1ccncc1OC21CCOCC1 [Example 87]	136	20.9	14.2	GI50 (MV4:11; [1]): 1000 to 10000 nM; GI50 (Molm13; [3]): 10000 to 100000 nM; GI50 (SW620; [4]): 10000 to 100000 nM; GI50 (MDA-MB-231; [2]): 10000 to 100000 nM
CCn1c(C(N)=O)c(-c2cccc(OC)c2)c2c1-c1ccncc1OC2(C)C [Example 88]	106	–	13.9	GI50 (MV4:11; [1]): < 1000 nM; GI50 (Molm13; [3]): 1000 to 10000 nM; GI50 (SW620; [4]): 10000 to 100000 nM; GI50 (MDA-MB-231; [2]): 10000 to 100000 nM
